According to ChEMBL document CHEMBL1201862, “PubChem BioAssay data set” (2004):
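Growth conditions: 96-well plates. Treatment: test compound, 48 hours, 5 concentrations. Analysis: linear interpolation between bracketing concentrations; unreached endpoints set to highest concentration. Abbreviation: GI50, concentration required for 50% inhibition of growth.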 Activity calls are given as the source filed them. No stated cut-off is given here; in the data, active = GI50 up to about 1.1 µM and inactive = higher.

Assays:
Test in all cases: NCI anticancer screen, dose series, 48 h
[1] = tested on: SK-MEL-2
[2] = tested on: HOP-92
[3] = tested on: SNB-19
[4] = tested on: OVCAR-3
[5] = tested on: SW-620
[6] = tested on: HOP-62
[7] = tested on: NCI-H23
[8] = tested on: NCI-H460
[9] = tested on: 786-0
[10] = tested on: BT-549
[11] = tested on: M14
[12] = tested on: HCT-15
[13] = tested on: SN12C
[14] = tested on: CAKI-1
[15] = tested on: UO-31
[16] = tested on: IGROV-1
[17] = tested on: CCRF-CEM
[18] = tested on: OVCAR-4
[19] = tested on: SF-539
[20] = tested on: OVCAR-5
[21] = tested on: SNB-75
[22] = tested on: NCI-H522
[23] = tested on: UACC-62
[24] = tested on: OVCAR-8
[25] = tested on: HCT-116
[26] = tested on: SF-268
[27] = tested on: LOX IMVI
[28] = tested on: SF-295
[29] = tested on: KM12
[30] = tested on: Malme-3M
[31] = tested on: UACC-257
[32] = tested on: NCI-H226
[33] = tested on: Hs-578T
[34] = tested on: T47D
[35] = tested on: MOLT-4
[36] = tested on: COLO 205
[37] = tested on: DU-145
[38] = tested on: A549
[39] = tested on: HCC 2998
[40] = tested on: MCF7
[41] = tested on: RPMI-8226
[42] = tested on: SK-MEL-5
[43] = tested on: ACHN
[44] = tested on: EKVX
[45] = tested on: RXF 393
[46] = tested on: U-251
[47] = tested on: A498
[48] = tested on: NCI/ADR-RES
[49] = tested on: TK-10
[50] = tested on: PC-3
[51] = tested on: SR
[52] = tested on: K562
[53] = tested on: MDA-MB-435
[54] = tested on: MDA-MB-231
[55] = tested on: MDA-N
[56] = tested on: SK-MEL-28
[57] = tested on: HT-29
[58] = tested on: SK-OV-3
[59] = tested on: HL-60

O=c1c2cc(Br)ccc2oc2nc3n(c(=O)c12)CCCS3
GI50 [1]: > 100 µM (inactive)
GI50 [2]: > 100 µM (inactive)
GI50 [3]: > 100 µM (inactive)
GI50 [4]: > 100 µM (inactive)
GI50 [5]: > 100 µM (inactive)
GI50 [6]: > 100 µM (inactive)
GI50 [7]: > 100 µM (inactive)
GI50 [8]: > 100 µM (inactive)
GI50 [9]: > 100 µM (inactive)
GI50 [10]: > 100 µM (inactive)
GI50 [11]: > 100 µM (inactive)
GI50 [12]: > 100 µM
GI50 [13]: > 100 µM (inactive)
GI50 [14]: > 100 µM (inactive)
GI50 [15]: 39.2 µM (inactive)
GI50 [16]: > 100 µM (inactive)
GI50 [17]: > 100 µM (inactive)
GI50 [18]: > 100 µM (inactive)
GI50 [19]: > 100 µM (inactive)
GI50 [20]: > 100 µM (inactive)
GI50 [21]: > 100 µM (inactive)
GI50 [22]: > 100 µM (inactive)
GI50 [23]: > 100 µM (inactive)
GI50 [24]: > 100 µM (inactive)
GI50 [25]: > 100 µM (inactive)
GI50 [26]: > 100 µM (inactive)
GI50 [27]: > 100 µM (inactive)
GI50 [28]: > 100 µM (inactive)
GI50 [29]: > 100 µM (inactive)
GI50 [30]: > 100 µM (inactive)
GI50 [31]: > 100 µM (inactive)
GI50 [32]: > 100 µM (inactive)
GI50 [33]: > 100 µM (inactive)
GI50 [34]: 30.1 µM (inactive)
GI50 [35]: > 100 µM (inactive)
GI50 [36]: > 100 µM (inactive)
GI50 [37]: > 100 µM (inactive)
GI50 [38]: > 100 µM (inactive)
GI50 [39]: > 100 µM (inactive)
GI50 [40]: > 100 µM (inactive)
GI50 [41]: > 100 µM (inactive)
GI50 [42]: 47.5 µM (inactive)
GI50 [43]: > 100 µM (inactive)
GI50 [44]: > 100 µM (inactive)
GI50 [45]: > 100 µM (inactive)
GI50 [46]: > 100 µM (inactive)
GI50 [47]: > 100 µM (inactive)
GI50 [48]: > 100 µM (inactive)
GI50 [49]: > 100 µM (inactive)
GI50 [50]: > 100 µM (inactive)
GI50 [51]: > 100 µM (inactive)
GI50 [52]: > 100 µM (inactive)
GI50 [53]: > 100 µM (inactive)
GI50 [54]: > 100 µM (inactive)
GI50 [55]: > 100 µM (inactive)
GI50 [56]: > 100 µM (inactive)

NC(=S)NC/C=C/Cl
GI50 [1]: > 100 µM (inactive)
GI50 [2]: > 100 µM (inactive)
GI50 [3]: > 100 µM (inactive)
GI50 [4]: > 100 µM (inactive)
GI50 [5]: > 100 µM (inactive)
GI50 [6]: > 100 µM (inactive)
GI50 [7]: > 100 µM (inactive)
GI50 [8]: > 100 µM (inactive)
GI50 [9]: > 100 µM (inactive)
GI50 [10]: > 100 µM (inactive)
GI50 [11]: > 100 µM (inactive)
GI50 [12]: > 100 µM
GI50 [14]: > 100 µM (inactive)
GI50 [15]: > 100 µM (inactive)
GI50 [16]: > 100 µM (inactive)
GI50 [57]: > 100 µM (inactive)
GI50 [17]: > 100 µM (inactive)
GI50 [18]: > 100 µM (inactive)
GI50 [20]: > 100 µM (inactive)
GI50 [21]: > 100 µM (inactive)
GI50 [22]: 86.5 µM (inactive)
GI50 [23]: > 100 µM (inactive)
GI50 [24]: > 100 µM (inactive)
GI50 [25]: > 100 µM (inactive)
GI50 [27]: > 100 µM (inactive)
GI50 [28]: > 100 µM (inactive)
GI50 [29]: > 100 µM (inactive)
GI50 [30]: > 100 µM (inactive)
GI50 [31]: > 100 µM (inactive)
GI50 [32]: > 100 µM (inactive)
GI50 [33]: > 100 µM (inactive)
GI50 [34]: > 100 µM (inactive)
GI50 [35]: > 100 µM (inactive)
GI50 [36]: > 100 µM (inactive)
GI50 [37]: > 100 µM (inactive)
GI50 [38]: > 100 µM (inactive)
GI50 [40]: > 100 µM (inactive)
GI50 [41]: > 100 µM (inactive)
GI50 [42]: > 100 µM (inactive)
GI50 [43]: > 100 µM (inactive)
GI50 [44]: > 100 µM (inactive)
GI50 [45]: > 100 µM (inactive)
GI50 [58]: > 100 µM (inactive)
GI50 [48]: > 100 µM (inactive)
GI50 [49]: > 100 µM (inactive)
GI50 [50]: > 100 µM (inactive)
GI50 [51]: > 100 µM (inactive)
GI50 [52]: > 100 µM (inactive)
GI50 [53]: > 100 µM (inactive)
GI50 [54]: > 100 µM (inactive)
GI50 [59]: > 100 µM (inactive)
GI50 [55]: > 100 µM (inactive)
